# Test results published in US9035057B2, “Dihydroethidine analogues and uses thereof” (Washington University, priority 2009, dated 2015).
# Legend:
# [1] = Comparative oxidation of C1 and DHE in the presence of oxidizers, single wavelength fluorescence platereader study; assay type: biochemical; conditions: elevations with superoxide but not with peroxide (H202), hydroxyl radical (HO—) or peroxynitrate (ONOO—); FIG. 2
# Procedure: This example illustrates comparative oxidation of C1 and DHE. In these experiments, fluorescence of C1 or DHE were determined in the presence of oxidizers. […] In this single wavelength fluorescence platereader study, it should be noted that the ratio of fluorescence increase in a study cannot be compared between DHE and compound C1 since their non-oxidized forms have fluorescence and the light spectra overlap to a variable degree with the oxidized forms.
# [2] = In vivo oxidation in brains of ketamine-pretreated mice, confocal microscopy; conditions: for detection of superoxide produced by ketamine treatment (fluorescence of oxidized form in mouse brain): ketamine pretreatment
# Procedure: In these experiments, mice were pretreated for several days with subanesthetic doses of ketamine, which produces a large increase in neuronal superoxide generation (Behrens et al, 2007). The mice were injected with 27 mg/kg of compound C1 and sacrificed 16 hours later. Brains were sliced and imaged by confocal microscopy. The images of the brains sliced 16 hours after administration of compound C1 are depicted in FIG. 4. […] The quantitative measures of fluorescence of the oxidized forms of DHE and compound C1 in mouse brain are depicted in FIG. 5. When compound C1 was administered to transgenic mice overexpressing SOD, the increased fluorescence from the ketamine pretreatment was abolished, consistent with the SOD removal of superoxide (FIG. 5).
# [3] = Plate reader oxidation rate of compound C1, superoxide production with hypoxanthine and xanthine oxidase (XO system); assay type: biochemical
# Procedure: (§1) This example illustrates oxidation rates of Compound C1 under various conditions. In these experiments, fluorescence intensity of Compound C1 was evaluated in a plate reader assay, and the fluorescence intensity over time of the oxidation rate of compound C1 was evaluated. […] Excitation was done at 480 nm and emission filtering was >590 nm. The following reaction conditions were used: [table]
# [4] = Plate reader oxidation of compound C1 with peroxide; assay type: biochemical; conditions: H202 1 mM
# Procedure: as §1
# [5] = Plate reader oxidation of compound C1 with H202 and horseradish peroxidase; assay type: biochemical; conditions: H202 1 mM, HRP 0.2 U/ml
# Procedure: as §1
# [6] = Selective reactivity with superoxide generated by xanthine oxidase/hypoxanthine, absence or presence of SOD; assay type: biochemical; conditions: for oxidation by superoxide / effect of SOD on oxidation by superoxide: xanthine oxidase/hypoxanthine; for oxidation by superoxide: absence of SOD, DHE concentration double that of the WC compounds; for effect of SOD on oxidation by superoxide: presence of SOD; for specificity for superoxide: FIG. 3, change in fluorescent units from baseline; for specificity for superoxide, comparison among compounds: levels of hydroxyl radical very supraphysiological
# Procedure: (§2) This example illustrates a comparison of compounds for selective reactivity with superoxide radical. In these experiments, compounds WC-63, WC-77 and WC-81 were exposed to superoxide generated by xanthine oxidase/hypoxanthine in the absence or presence SOD, and were evaluated similarly as compound C1 in Example 10. The concentration of DHE for all experiments was double that of compounds WC-63, WC-77 and WC-81. […] All of the compounds were also exposed to H202 in the presence of horseradish peroxidase (HRP) to generate hydroxyl radical.
# [7] = Tissue uptake of the tracers, fluorescence lifetime imaging; assay type: in vivo, mice; conditions: FIG. 8
# Source text: This example illustrates tissue uptake of the tracers. In these experiments, tracer lifetimes in mice were studied by fluorescence imaging of DHE and compounds WC-63, WC-77 and WC-81.
# [8] = Exposure to H202 in the presence of horseradish peroxidase (HRP), fluorescence; assay type: biochemical; conditions: H202 with HRP, supraphysiologic levels
# Procedure: as §2
# [9] = Exposure to H202 alone, fluorescence; assay type: biochemical
# Procedure: as §2
# [10] = Fluorescence from oxidation of compound WC-81 in mouse brain images; assay type: in vivo, mice; conditions: FIG. 7
# Procedure: This example illustrates fluorescence from oxidation of Compound WC-81. In these experiments, compound WC-81 was administered to mice, and images of mouse brains were then obtained (FIG. 7).
# [11] = Kinetics of compound WC-81 in brain in vivo, eXplore Optix-MX2 fluorescence scanner; parameters: species or system mouse
# Procedure: In these experiments, an anesthetized mouse was placed in an eXplore Optix™-MX2 scanner, and an initial scan was completed for background fluorescence (T=0). A single intraperitoneal injection of 50 mg/kg of compound WC-81 in 50% DMSO, 50% saline was performed, and the animal was rescanned at 10 minutes. It took approximately 5 minutes to complete the scan. The mouse was removed, allowed to recover, then re-anesthetized and rescanned at 1 hour. A similar recovery and rescan was performed at 2 hours. The mouse was pretreated with subanesthetic doses of ketamine to raise superoxide levels. Cortical (left and right) and cerebellar activity are depicted in FIG. 6.
Structure (SMILES),oxidation by superoxide [6],effect of SOD on oxidation by superoxide [6],oxidation in the presence of hydroxyl radical [8],specificity for superoxide [6],"specificity for superoxide, comparison among compounds [6]",detection of superoxide produced by ketamine treatment (fluorescence of oxidized form in mouse brain) ([2]; FIG. 5),tissue presence of tracer [7],oxidation with H202 [9],other results
CN1c2cc(N)ccc2-c2ccc(N)cc2C1c1ccccc1 (stereo not drawn) [C1],–,–,–,–,–,detected a large increase,–,–,"selective oxidation (fluorescence) in the presence of oxidizers [1]: selective oxidation similar to DHE; pattern of brain fluorescence ([2]; ketamine pretreated mice, 27 mg/kg, sacrificed 16 hours later, FIG. 4): consistent with the presence of intracellular oxidized compound C1; increased fluorescence from ketamine pretreatment in transgenic mice overexpressing SOD ([2]; transgenic mice overexpressing SOD, FIG. 5): abolished; effect of superoxide dismutase (SOD) on oxidation ([3]; XO system plus SOD 575 U/ml): completely removed; effect of catalase on oxidation ([3]; XO system plus catalase 60 U/ml): did not effect; rate of conversion by oxidation compared with DHE ([3]; data not shown): slightly faster than DHE; oxidation under superoxide production ([3]; hypoxanthine and xanthine oxidase (XO system)): oxidized rapidly; reactivity and selectivity for superoxide (fluorescence intensity over time) ([3]; plate reader, excitation 480 nm, emission >590 nm, FIG. 1): both reactivity and selectivity for superoxide; oxidation with peroxide [4]: no oxidation; oxidation with H202 with horseradish peroxidase [5]: no oxidation"
"CCN1c2cc(N)ccc2-c2ccc(N)cc2C1c1ccccc1 (stereo not drawn) [DHE, 2,7-diamino-10-ethyl-9-phenyl-9,10-dihydrophenanthradine, reference compound]",oxidized by superoxide,fully blocked oxidation,–,–,–,detected a large increase,present in the brain and organs in the chest,–,–

# Continued, in another order:
oxidation by superoxide [6],effect of SOD on oxidation by superoxide [6],oxidation in the presence of hydroxyl radical [8],specificity for superoxide [6],"specificity for superoxide, comparison among compounds [6]",Structure (SMILES),detection of superoxide produced by ketamine treatment (fluorescence of oxidized form in mouse brain) ([2]; FIG. 5),tissue presence of tracer [7],oxidation with H202 [9],other results
oxidized by superoxide,fully blocked oxidation,generally no evidence of oxidation,high specificity for superoxide,–,COc1ccc(C2c3cc(N)ccc3-c3ccc(N)cc3N2C)cc1 (stereo not drawn) [WC-63],–,present in the brain and organs in the chest,generally no evidence of oxidation,–
oxidized by superoxide,fully blocked oxidation,generally no evidence of oxidation,high specificity for superoxide,most specific compound for superoxide,CN1c2cc(N)ccc2-c2ccc(N)cc2C1c1ccc(OCc2cn(CCF)nn2)cc1 (stereo not drawn) [WC-77],–,–,generally no evidence of oxidation,–
oxidized by superoxide,fully blocked oxidation,partial oxidation,high specificity for superoxide,highly selective for superoxide,CN1c2cc(N)ccc2-c2ccc(N)cc2C1c1ccc(OCCF)cc1 (stereo not drawn) [WC-81],–,present in the brain and organs in the chest,generally no evidence of oxidation,"stability of the product, comparison among compounds [6]: most stable and intact product; localization of fluorescence from oxidation in brain [10]: localized to cerebral microvessels and to the extracellular space around certain cortical or hippocampal neurons; brain fluorescence levels at 120 minutes ([11]; 50 mg/kg intraperitoneal, 120 minutes): fall in levels; time by which plateau of brain fluorescence was reached ([11]; 50 mg/kg intraperitoneal, cortical and cerebellar activity): ≤ 60 min; brain penetration ([11]; single intraperitoneal injection 50 mg/kg in 50% DMSO, 50% saline, ketamine pretreated mouse, FIG. 6): penetrated the brain"
